Here are results for four molecules from PMC3914206.

Common to all, as to assay type: binding
Assay [1] has as its system panel of 442 kinases. To be noted: for KINOMEscan: EGFR(L747-E749del, A750P) / KINOMEscan: EGFR(L747-S752del, P753S) / KINOMEscan: EGFR(L747-T751del,Sins) / KINOMEscan: FLT3(ITD): Compound Concentration 10 µM; for Number of score not higher than 10: of 442 total assayed kinases, % Ctrl ≤ 10; for Number of score not higher than 10 / S10: compound concentration 10 µM; for S10: selectivity score = (number of kinases with %Ctrl ≤ 10)/total number of kinases tested (442). The source says: (§1) We assessed the selectivity of members of this scaffold using the KINOMEscan methodology across a near comprehensive panel of 442 kinases [[18,27]].

For assay [2], the target named is T1, panel of 442 kinases (Homo sapiens, UniProt Q9Y5S2).
T1 construct: purchased KINOMEscan
T1 sequence (Q9Y5S2 whole entry): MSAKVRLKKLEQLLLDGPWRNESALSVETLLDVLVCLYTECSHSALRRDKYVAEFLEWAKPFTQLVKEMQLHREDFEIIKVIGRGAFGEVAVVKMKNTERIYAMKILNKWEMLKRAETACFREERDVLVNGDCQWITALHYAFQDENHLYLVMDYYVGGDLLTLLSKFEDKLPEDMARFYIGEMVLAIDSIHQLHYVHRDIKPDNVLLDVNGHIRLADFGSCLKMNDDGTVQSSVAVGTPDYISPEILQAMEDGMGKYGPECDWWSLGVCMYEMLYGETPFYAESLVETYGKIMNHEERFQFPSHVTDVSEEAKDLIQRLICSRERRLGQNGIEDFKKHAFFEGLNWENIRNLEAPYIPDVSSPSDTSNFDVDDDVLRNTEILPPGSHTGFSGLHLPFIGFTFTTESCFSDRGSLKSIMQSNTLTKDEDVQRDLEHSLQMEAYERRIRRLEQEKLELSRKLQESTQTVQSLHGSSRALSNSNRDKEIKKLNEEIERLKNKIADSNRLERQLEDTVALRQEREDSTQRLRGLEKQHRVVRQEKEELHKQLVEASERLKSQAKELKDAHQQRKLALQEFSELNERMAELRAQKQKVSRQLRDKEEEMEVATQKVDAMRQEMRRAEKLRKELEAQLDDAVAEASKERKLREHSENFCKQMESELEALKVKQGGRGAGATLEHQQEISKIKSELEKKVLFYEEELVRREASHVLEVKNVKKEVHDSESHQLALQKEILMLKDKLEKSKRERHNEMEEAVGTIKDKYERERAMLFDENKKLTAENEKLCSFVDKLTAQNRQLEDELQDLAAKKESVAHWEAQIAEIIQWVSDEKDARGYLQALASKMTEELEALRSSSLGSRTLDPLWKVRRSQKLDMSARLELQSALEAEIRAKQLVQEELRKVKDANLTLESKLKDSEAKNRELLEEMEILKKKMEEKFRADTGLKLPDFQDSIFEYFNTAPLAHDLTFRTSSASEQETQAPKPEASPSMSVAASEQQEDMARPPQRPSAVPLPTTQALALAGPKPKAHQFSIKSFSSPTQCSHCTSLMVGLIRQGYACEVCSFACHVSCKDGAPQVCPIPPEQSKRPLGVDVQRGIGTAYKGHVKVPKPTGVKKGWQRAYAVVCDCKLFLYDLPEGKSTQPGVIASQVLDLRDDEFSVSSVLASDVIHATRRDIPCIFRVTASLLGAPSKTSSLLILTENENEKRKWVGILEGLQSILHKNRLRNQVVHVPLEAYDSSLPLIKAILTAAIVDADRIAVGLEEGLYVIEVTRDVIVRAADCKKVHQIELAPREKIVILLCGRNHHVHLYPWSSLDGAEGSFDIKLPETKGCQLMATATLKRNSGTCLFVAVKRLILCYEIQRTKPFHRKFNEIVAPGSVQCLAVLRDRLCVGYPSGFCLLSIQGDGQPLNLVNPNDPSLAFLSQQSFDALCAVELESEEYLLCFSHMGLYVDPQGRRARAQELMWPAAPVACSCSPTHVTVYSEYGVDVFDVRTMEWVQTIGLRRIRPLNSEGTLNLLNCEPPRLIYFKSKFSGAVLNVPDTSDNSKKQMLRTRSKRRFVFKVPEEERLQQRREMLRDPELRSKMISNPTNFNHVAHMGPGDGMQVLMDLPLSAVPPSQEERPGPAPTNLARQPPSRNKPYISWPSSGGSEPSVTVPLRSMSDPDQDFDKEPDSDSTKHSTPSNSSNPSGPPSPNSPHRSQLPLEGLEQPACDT
To be noted: Compound Concentration 10 µM.
Source text: as §1

The target in assay [3] is T2, panel of 442 kinases (Homo sapiens, UniProt P49841).
T2 construct: purchased KINOMEscan
T2 sequence (P49841 whole entry): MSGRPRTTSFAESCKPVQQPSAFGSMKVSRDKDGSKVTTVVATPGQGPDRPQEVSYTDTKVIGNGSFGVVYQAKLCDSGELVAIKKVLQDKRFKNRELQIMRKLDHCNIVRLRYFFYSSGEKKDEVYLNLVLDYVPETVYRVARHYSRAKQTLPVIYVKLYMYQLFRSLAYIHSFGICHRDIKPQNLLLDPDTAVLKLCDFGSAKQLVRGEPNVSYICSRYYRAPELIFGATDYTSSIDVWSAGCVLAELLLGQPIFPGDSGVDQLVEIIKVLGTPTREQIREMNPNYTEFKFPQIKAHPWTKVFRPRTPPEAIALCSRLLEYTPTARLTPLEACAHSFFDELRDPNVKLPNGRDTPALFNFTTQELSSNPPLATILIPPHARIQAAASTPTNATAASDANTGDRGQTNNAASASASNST
Conditions: Compound Concentration 10 µM.
Source text: as §1

Assay [4] deals with T3, panel of 442 kinases (Homo sapiens, UniProt P17612).
T3 construct: purchased KINOMEscan
Conditions: Compound Concentration 10 µM.
Source text: as §1

For `COc1cc(C(=O)N2CCC(N3CCN(C)CC3)CC2)ccc1Nc1ncc2c(n1)N(C1CCCC1)c1ccccc1C(=O)N2C` [Compound 25, 11-cyclopentyl-2-((2-methoxy-4-(4-(4-methylpiperazin-1-yl)piperidine-1-carbonyl)phenyl)amino)-5-methyl-5H-benzo[e]pyrimido[5,4-b][1,4]diazepin-6(11H)-one], in assay [1], the “KINOMEscan: EGFR(L747-E749del, A750P)” value worked out at 85; the “KINOMEscan: EGFR(L747-S752del, P753S)” value is recorded as 74; the “KINOMEscan: EGFR(L747-T751del,Sins)” value was found to be 76; the “KINOMEscan: FLT3(ITD)” value amounted to 100. Further, in assay [1], the “Number of score not higher than 10” value came out at 8 and the S10 is on record as 0.018. The “KINOMEscan selectivity score (S10)” value in assay [1] (screened at 10 μM, 442 kinases) came to 0.018. In assay [2], the “KINOMEscan: MRCKB” value was determined as 100. In addition, the “KINOMEscan: GSK3B” value in assay [3] is 80. Moreover, in assay [4], the “KINOMEscan: PKAC-alpha” value is listed as 100.
For `COc1cc(C(=O)N2CCC(N3CCN(C)CC3)CC2)ccc1Nc1ncc2c(n1)N1CCc3cccc(c31)C(=O)N2C` [Compound 24], the “KINOMEscan: GSK3B” value in assay [3] stood at 72.
`COc1cc(C(=O)N2CCC(N3CCN(C)CC3)CC2)ccc1Nc1ncc2c(n1)N(C)c1ccccc1C(=O)N2C` [15 (LRRK2-IN-1)]: in assay [1], the “KINOMEscan: EGFR(L747-E749del, A750P)” value is 78; the “KINOMEscan: EGFR(L747-S752del, P753S)” value amounted to 84; the “KINOMEscan: EGFR(L747-T751del,Sins)” value was 100; the “KINOMEscan: FLT3(ITD)” value is 100. Also, in assay [1], the “Number of score not higher than 10” value was 16 and the S10 is on record as 0.036. The “KINOMEscan: MRCKB” value in assay [2] stood at 100. Further, the “KINOMEscan: GSK3B” value in assay [3] turned out to be 88. In assay [4], the “KINOMEscan: PKAC-alpha” value was found to be 100.
Regarding `CCOc1cc(C(=O)N2CCC(N3CCN(C)CC3)CC2)ccc1Nc1ncc2c(n1)N(C1CCCC1)c1ccccc1C(=O)N2C` [Compound 26], in assay [1], the “KINOMEscan: EGFR(L747-E749del, A750P)” value turned out to be 100; the “KINOMEscan: EGFR(L747-S752del, P753S)” value is 100; the “KINOMEscan: EGFR(L747-T751del,Sins)” value is listed as 100; the “KINOMEscan: FLT3(ITD)” value amounted to 100. In addition, in assay [1], the “Number of score not higher than 10” value worked out at 3 and the S10 was 0.007. In addition, the “KINOMEscan: MRCKB” value in assay [2] came out at 100. In addition, the “KINOMEscan: GSK3B” value in assay [3] was found to be 98. The “KINOMEscan: PKAC-alpha” value in assay [4] was 100.
